The test system of series [1] is Hacat cells. The series can be described thus: Cytotoxicity measurement, WST-1 metabolic activity test. It counts as cell-based, human. The settings on record: 0.3 μM, 10 μM or 30 μM, 72 hours.
Series [2] addresses T1, CCL17 chemokine (Homo sapiens, UniProt Q92583).
T1 construct: purchased; host or cells: HEK 293 cells stably transfected with EGFP-CCR4, transiently transfected with Gqi5
T1 sequence (Q92583 24-94): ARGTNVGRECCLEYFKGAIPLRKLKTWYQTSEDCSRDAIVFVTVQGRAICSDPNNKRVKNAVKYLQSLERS
The series can be described thus: Inhibition of calcium response induced by CCL17 in HEK 293 cells expressing CCR4 (Indo-1). It counts as cell-based. As to the method: HEK 293 cells (ATCC) are cultured in minimal essential medium MEM (Invitrogen) in the presence of 10% of fetal calf serum (Gibco-BRL), 100 U/mL of penicillin (Invitrogen), 100 μg/mL of streptomycin (Invitrogen) and 2 mM of L-glutamine (Invitrogen) at 37° C. in water-saturated atmosphere and containing 5% of 002. […] The clones are selected after having been characterized by fluorescence microscopy and cytometric analysis by FACS (fluorescence assisted cell sorting).
(§1) In order to enable an easy recording of the cell responses associated to the CCR4 receptor, we modify its natural coupling to the inhibition of AMPc production to a coupling to the phospholipase C which enables calcium measurements. We produce for this purpose the chimeric protein Gqi5 by directed mutagenesis of the 5 las amino acids of Gq replaced by their homologues of Gi. The cells expressing the CCR4 receptor are transfected with the plasmid pCNA3.1 in which the cDNA encoding Gqi5 has been incorporated. The recordings of calcic responses are performed the day after de transfection.
(§2) The cells are loaded with a fluorescent calcium indicator, INDO-1, according to the protocol provided by the provider (Molecular probes), distributed in microplate wells and placed in a fluorescence reader-pipettor (FlexStation, Molecular devices).
Measure points are recorded every 5 s for 150 s for each well. The molecules are tested in the presence of 5 nM of CCL17 chemokine (commercial).
The molecules are tested at the concentration of 10 μm. The concentration of CCL17 is 5 nM.

In series [3] the target is T2, CCL22 (Homo sapiens, UniProt O00626).
T2 sequence (O00626 25-93): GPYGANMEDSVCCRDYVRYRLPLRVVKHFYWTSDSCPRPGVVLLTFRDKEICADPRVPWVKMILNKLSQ
The series can be described thus: Inhibition of calcium response induced by CCL22 in cells expressing CCR4 (Indo-1). It counts as cell-based. The settings on record: molecules at 10 μm, read-out: Inhibition of calcium responses induced by CCL22 (%). As to the method:
In order to enable an easy recording of the responses associated to the CCR4 receptor, the cDNA which allows its expression is cloned in the plasmid pIRES (ClonTech) in fusion with the GFP protein, according to Vollmer et al. (1999), which enables to easily measure the expression of the chimeric EGFP-CCR4 receptor. HEK 293 cells (ATCC) are cultured in minimal essential medium MEM (Invitrogen) in the presence of 10% of fetal calf serum (Gibco-BRL), 100 U/mL of penicillin (Invitrogen), 100 μg/mL of streptomycin (Invitrogen) and 2 mM of L-glutamine (Invitrogen) at 37° C. in water-saturated atmosphere and containing 5% of 002. The cells are transfected according to the calcium phosphate precipitate method of Chen ant Okayama, 1986, and the cells having incorporated the expression plasmid are selected with 600 μg/mL of geneticin G-418 (PAA) for 5 weeks. The clones are selected after having been characterized by fluorescence microscopy and cytometric analysis by FACS (fluorescence assisted cell sorting).
as §1, §2
Intracellular calcium elevation is measured by fluorescence intensity change at 401 and 475 nm (excitation 355 nm). Measure points are recorded every 5 s for 150 s for each well. The molecules are tested in the presence of 5 nM of CCL17 chemokine (commercial).
The response develops in a few seconds and fades with time for reaching the return in approximately 2 minutes for a CCL17 chemokine concentration of 5 to 10 nM in HEK 293 cells expressing CCR4. If the molecules to be tested are preincubated with chemokine [CK+N] and if the mixture is added to the cells, we observe a strong decrease in the amplitude of the response if the molecule to be tested is a neutralizing ligand of the chemokine. Conversely, when the neutralizing ligand is preincubated with the cells expressing the receptor [CKR+N] we observe a much smaller decrease of the amplitude of the response.
The analysis of the molecules selectivity is carried out by measuring the inhibition (at the concentration of 10 μm) of the response evoked by other chemokines (5 μm) on their respective receptors. Thus, in FIG. 3, the molecules have been tested on the pairs CCL2/CCR2, CCL3/CCR5, CCL17/CCR4, CCL22/CCR4, […], CXCL11/CXCR3, CXCL12/CXCR4.

In series [4] the target is T3, COX-2 (Homo sapiens, UniProt P35354).
T3 construct: endogenous in cells; host or cells: human monocytes in culture, LPS-induced
T3 sequence (P35354 18-604): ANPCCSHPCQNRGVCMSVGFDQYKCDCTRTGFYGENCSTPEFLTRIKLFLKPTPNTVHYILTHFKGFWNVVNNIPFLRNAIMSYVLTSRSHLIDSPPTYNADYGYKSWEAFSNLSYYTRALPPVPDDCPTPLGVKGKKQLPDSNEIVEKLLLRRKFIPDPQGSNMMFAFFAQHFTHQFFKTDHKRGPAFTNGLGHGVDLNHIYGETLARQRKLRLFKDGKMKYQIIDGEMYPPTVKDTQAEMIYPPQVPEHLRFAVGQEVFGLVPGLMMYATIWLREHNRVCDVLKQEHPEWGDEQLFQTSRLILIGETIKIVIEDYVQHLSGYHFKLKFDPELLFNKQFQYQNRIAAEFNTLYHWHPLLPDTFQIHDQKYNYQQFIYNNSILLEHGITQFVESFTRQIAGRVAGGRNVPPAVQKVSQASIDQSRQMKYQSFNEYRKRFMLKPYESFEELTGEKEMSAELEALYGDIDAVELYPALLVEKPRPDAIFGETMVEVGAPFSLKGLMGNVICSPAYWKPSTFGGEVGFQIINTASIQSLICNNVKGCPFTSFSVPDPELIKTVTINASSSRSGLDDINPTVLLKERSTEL
The series is described as follows: COX-2 activity by PGE2 production in LPS-induced monocytes. It counts as cell-based. The settings on record: LPS-treated monocytes. The procedure:
(§3) Determination of the Activity of COX 1 and COX 2 Cyclooxygenases on Human Monocytes in Culture.
COX-2: monocytes are incubated with LPS (10 U/ml) for 24 h in order to induce COX-2 synthesis. […] The arachidonic acid is added 15 minutes after the compounds to be tested, and 15 minutes later the production of PGE2 is determined.

Series [5] addresses T4, CCL17 (Homo sapiens, UniProt Q92583).
T4 sequence (Q92583 24-94): T1 sequence (Q92583 24-94)
The series can be described thus: Interaction affinity with CCL17 by fluorescence extinction of tryptophan residues. It counts as binding. The conditions noted are these: CCL17 1.5 μm, excitation 285 nm. As to the method:
Briefly: the fluorescence measurements are carried out on a spectrofluorimeter Fluorolog 3 (JobinYvon/Spex) in a quartz cuvette. […] The measurements are carried out at 20° C. and the solutions are stirred using a magnetic stir bar. The recorded emission spectra are corrected by subtraction of the emission spectrum of the compound to be tested alone.

For series [6], the target named is T5, COX-1 (Homo sapiens, UniProt P23219).
T5 construct: endogenous in cells; host or cells: human monocytes in culture
The series is described as follows: COX-1 activity by PGE2 production in monocytes treated with arachidonic acid. It counts as cell-based. The settings on record: up to 250 μM. The procedure:
as §3
COX-1: the release of COX-1 mediated prostaglandin E2 (PGE2) is determined by the arachidonic acid method. […] After 15 minutes of stimulation, the activity of COX-1 is measured by determination of the production of PGE2. Aspirin (ASS) a known inhibitor of COX-1 is used as a control inhibitor.

In series [7] the test system is human monocytes. The series is described as follows: Cytotoxicity on human monocytes, Alamar blue assay. It counts as cell-based. The settings on record: human monocytes with LPS, 5 concentrations, 24 hours. The procedure: Monocytes are inoculated in plates of 96 wells (approx. 5000 cells/well of 200 μl) for the Alamar blue assay.
After 24 hours, Alamar blue fluorescence is measured.

Series [8] concerns Hacat cells. The series can be described thus: Human keratinocytes migration assay (in vitro wound-healing test in a cell monolayer). It counts as cell-based. As to the method:
It is actually known that, in chronic pathologies an important cell migration may promote de formation of pruritus, one of the signs of dermatosis. The immortalized human keratinocytes obtained from the DKFZ (Heidelberg, Germany) are cultivated in Dulbecco medium modified by Eagle (DMEM, Invitrogen) supplemented with 10% of fetal calf serum (Gibco-BRL) and 100 U/ml of penicillin (Invitrogen), 100 μg/ml of streptomycin (Invitrogen) and 2 mM of L-glutamine (Invitrogen) at 37° C. and 5% of CO2. The wells of a culture plate of 24 well are inoculated with 200,000 cells and the culture is maintained until formation of a confluent cell monolayer. The cell monolayer is then damaged by performing a linear gap (scratch) using a sterile pipette head of 0.1-10 μL. […] The effect of the molecules alone is also recorded in different wells. In order to block cell proliferation, each well receives a dose of 1 μg/ml of mitomycin (Sigma-Aldrich). The culture plates are arranged in the IncuCyte apparatus (Essence Bioscience) which records the growth on the cell monolayer by transmitted imaging in cell culture conditions (37° C., 5% CO2, water-saturated atmosphere) for 72 h. Phase-contrast images are collected every 2 hours. Healing is defined (quantified) as the ratio of the width of the scar at time t and time 0. The experiment is repeated three times per condition.

The mark [9] stands for this setting: HEK293, molecules at 10 μm, CCL17 5 nM, HEK 293 cells expressing CCR4, read-out: Inhibition of calcium responses induced by CCL17 (%).
Where [10] appears, read: HEK293, read-out: Inhibition of calcium responses induced by CCL17 (%).

Like-named read-outs stand apart in the source and are kept apart here.

A word on the inhibition: it is the percentage by which the read-out fell short of the control. For `CC(C)=CCn1cnc2c1c(=O)n(C)c(=O)n2C` [GPN279, 3,7-dihydro-1,3-dimethyl-7-(3-methyl-2-butenyl)-1H-purin-2,6-dione], the “Activity of the mitochondrial enzyme (WST-1, absorbance 450 nm)” value in series [1] is “does not affect enzymatic activity”. Besides, in series [2] (molecules at 10 μm, CCL17 5 nM, HEK 293 cells expressing CCR4), the “Inhibition of calcium responses induced by CCL17 (%)” value came out at 42 ± 4%. For the same compound, the inhibition at 10 µM in series [3] amounted to 0%. In addition, the “Effect on COX-2 activity (PGE2 production)” value in series [4] (beyond 100 μM) is recorded as “slight increase in COX-2 activity”; in series [4] (up to the dose of 100 μM), “no effect”. Besides, in series [5], the “Fluorescence extinction of CCL17 (intrinsic tryptophan fluorescence)” value is on record as “fluorescence extinction of CCL17 is observed”. The “COX-1 inhibition (PGE2 production)” value in series [6] is listed as “not a COX-1 inhibitor”. Further, the “Cytotoxicity by Alamar blue” value in series [7] is listed as “not cytotoxic”. For the same compound, the “Effect on cell migration accelerated by the CCL17 chemokine” value in series [8] (Hacat monolayer, CCL17 100 ng/ml, 72 hours) is “abolished”. For the same compound, the “Dose-response relationship on Hacat cell monolayer healing” value in series [8] (with CCL17, 0.3 μM, 1 μM, 10 μM) is reported as “its effect depends on the dose”. For the same compound, in series [8] (without CCL17), the “Effect of the molecule alone on Hacat cell monolayer healing” value is on record as “does not have an effect”.

As to `Cc1nc2c(=O)[nH]c(=O)[nH]c2[nH]1` [GPN062], the inhibition at 10 µM in series [2] (setting [9]) and in series [3] was 0% throughout.

Turning to `CC(C)Cn1cnc2c1c(=O)n(C)c(=O)n2C` [GPS008659, 3,7-dihydro-7-isobutyl-1,3-dimethyl-1H-purine-2,6-dione], the inhibition at 10 µM stood at 36 ± 7% in series [2] (setting [10]) and 5 ± 5% in series [3].

With `Cn1c(=O)c2c(ncn2C)n(C)c1=O` [Caffeine, reference compound], the inhibition at 10 µM in series [2] (setting [9]) and in series [3] was 0% throughout.

Take `C=CCn1cnc2c1c(=O)n(C)c(=O)n2C` [GPS008660, 3,7-dihydro-7-allyl-1,3-dimethyl-1H-purine-2,6-dione]: the inhibition at 10 µM in series [2] (setting [10]) is 19 ± 5%; in series [3], 0%.

Regarding `CC(C)Cn1c(=O)n(C)c(=O)c2nc[nH]c21` [IBMX, reference compound], the inhibition at 10 µM in series [2] (setting [9]) and in series [3] was 0% each time.

As to `CCCCC(CC)Cn1cnc2c1c(=O)n(C)c(=O)n2C` (stereo not shown) [GPS008661, 3,7-dihydro-7-(2-ethylhexyl)-1,3-dimethyl-1H-purine-2,6-dione], the inhibition at 10 µM in series [2] (setting [9]) and in series [3] was 0% each time.

As for `CCCCn1cnc2c1c(=O)n(C)c(=O)n2C` [GPS008658, 3,7-dihydro-7-butyl-1,3-dimethyl-1H-purine-2,6-dione], the inhibition at 10 µM in series [2] (setting [10]) was 40 ± 9%; in series [3], 32 ± 8%.

Turning to `Cn1c(=O)c2[nH]cnc2n(C)c1=O` [Theophylline, reference compound], the inhibition at 10 µM in series [2] (setting [10]) and in series [3] was 0% each time.

Regarding `COc1cc2nc(N3CCC(N4CCCCC4)CC3)nc(NC3CCCCCC3)c2cc1OC` [C-021, reference compound], in series [5], the “Fluorescence extinction of CCL17 (intrinsic tryptophan fluorescence)” value is “no signal”.

(Values after patent US10828309B2, “Dermocosmetic or pharmaceutical use of a composition comprising at least one inhibitor of some chemoattractant cytokines” (GREENPHARMA, priority 2014, dated 2020).)
